Assay results from patent US20170165295A1, “COMPOSITION FOR PREVENTING, ALLEVIATING OR TREATING CONSTIPATION, CONTAINING HIGH HARDNESS MINERAL WATER PREPARED FROM DEEP OCEAN WATER OR DESALINATED GROUNDWATER” (ARIBIO INC., priority 2012, published 2017).
Where a name gives a salt, the structure may show the parent alone. Marks after values point to notes of the source that are not given here.

Columns and labels:
[1] = Body weight change of loperamide-induced constipated rats
Procedure: (§1) 6-week-old rats (SLC, Japan) were used for an experiment after acclimatization to new environments for 7 days. Five rats were raised per cage at 20-25° C. and 45-50% humidity. The light-dark cycle was 12 hr: 12 hr, and water and food were freely available. The rats were classified into six groups (nine rats per group, a total of 54 rats) based on the body weight thereof. Specific groups are as follows:
(§2) Administration of Test Material Magnesium hydroxide (Mg(OH)2; MagMill™) was purchased from Samnam Pharm. In order to protect test materials from light and moisture, the test materials were stored in a refrigerator at 4° C. The mineral water was orally administered at 10 ml/kg for each time, at an interval of 6 hours (30 ml/kg/day), three times a day, for a total of six days. The administration for each time was conducted 1 hour after administration of loperamide 3 mg/kg. Magnesium hydroxide was mixed with distilled water, and the mixture was orally administered once a day for a total of six days, and the same amount of distilled water was orally administered at the time of second and third administrations. Distilled water, instead of mineral water, was administered to groups 1 and 2.
(§3) In order to induce constipation, loperamide hydrochloride (Sigma, MO, U.S.) 3 mg/kg was mixed with saline water 5 ml/kg, and the mixture was orally administered to animals 1 hour before administration of the test material, once a day, for a total of six days. Detailed methods are disclosed in Bustos et al. Acta Gastroenterol Latinoam, 1991; 21:3-9 and Wintola et al. BMC Gastroenterol, 2010; 10:95, which are incorporated by reference into the present specification.
Body weight was measured once per day 1 day before the test material administration, at the day of the initiation of administration, and 1, 2, 3, 4, and 5 days after the initiation of administration, to verify the body weight change according to administration of the test material. All the animals were fasted (excluding water) for 5 days after the initiation of administration for one overnight in order to decrease the body weight difference due to feed ingestion and measure the intestinal charcoal transit ratio. In addition, the body weight gain was calculated by equation 1.
Body weight gain (g)=body weight at 6th administration last day−body weight at the day of the initiation of administration. [Equation 1]

[2] = system: loperamide-induced constipated rats; experiment: Fecal parameters in loperamide-induced constipated rats; type: in vivo; conditions: for Fecal dry-weights / Fecal wet-weights / Numbers of fecal pellets / Water contents of fecal pellets: collected at 4th administration day (24 hrs), mean ± S.D. of nine rats
Procedure: as §1, §2, §3
The fecal pellets of each rat were collected 24 hours after the 4th administration day. The total number, wet weight, and water content of the fecal pellets were checked. The water content was calculated by equation 2 below:
Water content of fecal pellets (%)=((wet weight of fecal pellets−dry weight of fecal pellets)/wet weight of fecal pellets)×100 [Equation 2]
(§4) Multiple comparison tests of the groups with different dosages were conducted. Variance homogeneity was examined using the Levene test (Levene A, Clin Otalary, 1981; 6:145-51). […] In cases where significant deviations from variance homogeneity were observed by the Levene test, the non-parametric comparison test and Kruskal-Wallis H test were conducted. When a significant difference was observed by the Kruskal-Wallis H test, the Mann-Whitney U (MW) test was used to determine the significance of specific pairwise comparisons. Statistical analyses were conducted using SPSS (Release 14K, SPSS Inc. USA; Ludbrook, Clin Exp Pharmacol Physiol, 1997; 24:294-6). In addition, the percentage change between the normal group and loperamide control was calculated to identify the severity of induced constipation, and then, in order to evaluate the efficacy of the test materials, the percent change compared with the loperamide control was calculated by equations 4 and 5.
(§5) Percent change compared with normal group (%)=(((normal group data)−(loperamide control data)/normal group data)×100) [Equation 4]
(§6) Percentage change (%) compared with loperamide control=(((loperamide control data−test material administered rat data)/(loperamide control data))×100) [Equation 5]

[3] = system: loperamide-induced constipated rats; experiment: Remnant fecal pellets in the colon of loperamide-induced constipated rats; type: in vivo
Procedure: as §1, §2, §3
The total number and mean thickness (short axis) of remnant fecal pellets in the colonic lumen were measured when the gastrointestinal charcoal transit ratio was measured.
as §4, §5, §6

[4] = system: loperamide-induced constipated rats; experiment: Gastrointestinal charcoal transit ratio in loperamide-induced constipated rats; type: in vivo; conditions: for Gastrointestinal charcoal transit ratio / Length of charcoal meal transferred: during 30 min after charcoal meal, after 6th administration, mean ± S.D. of nine rats
Procedure: as §1, §2, §3
The gastrointestinal propulsion of the charcoal meal was checked by the method disclosed in Sagar et al. BMC Complement Altern Med, 2005; 5:18, with minor modification. Prior to the experiment, animals were fasted for 18 hours (water supplied). Ten minutes after the 6th administration (last) of the test material, animals of each group were fed with 1 ml of charcoal meal (3% suspension of activated charcoal in 0.5% aqueous methylcellulose). Thirty minutes after charcoal meal ingestion, the animals of each group were sacrificed, and the total small intestine length (from pyloric sphincter to appendix) and the charcoal meal transit distance were measured. The gastrointestinal charcoal transit ratio was calculated by equation 3 below:
Charcoal transit ratio (%)=(([…])/total small intestine length)×100 [Equation 3]
as §4, §5, §6

[5] = system: loperamide-induced constipated rats; experiment: Histomorphometry of the colon and remnant fecal pellets in loperamide-induced constipated rats; type: in vivo; conditions: for Colon mucosa thicknesses / Fecal pellet surface mucous thickness / Mucous producing cell numbers: at sacrifice, 6 days of administration, mean ± S.D. of nine rats; for Mucous producing cell numbers: colonic mucosa
Procedure: as §1, §2, §3
Histopathological assessment of the colonic mucosa and remnant fecal pellets in the colonic lumen was conducted by the method of Wu et al. J Ethnopharmacol, 2011; 134:406-13, with minor modification. In short, the distal colon fragment containing one fecal pellet was isolated using ligatures, removed, and immediately fixed with 10% formaldehyde (when the gastrointestinal charcoal transit ratio was measured). The fixed tissue segments were paraffin-embedded, and sliced into 3 μm-thickness cross sections. The sliced samples were stained with Alcian blue at pH 2.5. Five tissue segments per group were prepared, and histological profiles thereof were interpreted. The histopathologist was blinded to the group distributions at the time of analysis.
Histomorphometry: The mean thickness of the mucosal layers at the fecal surface (μm/fecal pellet), mucous-producing cell number (cells/mm^2) per unit area in the colonic mucosa, and the colonic mucosal thickness (μm/colon) were measured by using an automated image analyzer (DMI-300, DMI, Korea) under a light microscope.
as §4, §5

[6] = loperamide control 3 mg/kg, percent change compared with the normal group
[7] = at sacrifice after 6th administration, 18 h fasting, mean ± S.D. of nine rats
[8] = percent change compared with the loperamide control

CN(C)C(=O)C(CCN1CCC(O)(c2ccc(Cl)cc2)CC1)(c1ccccc1)c1ccccc1 [Loperamide, loperamide hydrochloride]
significant changes in body weight and weight gain ([1]; compared with the normal group and loperamide control): not observed
change in weight gain during the administration period ([1]; loperamide control 3 mg/kg, percent change compared with normal group): −7.92%
Fecal dry-weights [2]: 4.17 ± 0.63^a g/24 hr/rat
Fecal wet-weights [2]: 7.65 ± 1.25^d g/24 hr/rat
Numbers of fecal pellets [2]: 45.22 ± 4.97^d
Water contents of fecal pellets [2]: 45.29 ± 4.06^a %
change in number of fecal pellets for 24 hours, 4 days after administration [2, 6]: −27.45%
change in water content in fecal pellets for 24 hours, 4 days after administration [2, 6]: −17.47%
Remnant fecal pellets in the colon: Numbers [3, 7]: 3.89 ± 1.05^a
change in mean diameter of remnant fecal pellets in the colon [3, 6]: 57.96%
change in number of remnant fecal pellets in the colon [3, 6]: 118.75%
Gastrointestinal charcoal transit ratio [4]: 61.20 ± 5.98^a %
Length of charcoal meal transferred [4]: 74.21 ± 6.41^a cm
change in intestinal charcoal transit ratio [4, 6]: −20.05%
Colon mucosa thicknesses [5]: 104.38 ± 10.79^c μm
Fecal pellet surface mucous thickness [5]: 5.84 ± 2.53^a μm
Mucous producing cell numbers [5]: 179.00 ± 46.31^c cells/mm^2
change in colon mucosa thickness [5, 6]: −70.97%
change in fecal pellet surface mucosal thickness in the colon [5, 6]: −89.93%
change in mucous-producing cell number per unit area in the colonic mucosa [5, 6]: −72.40%

[Mg+2].[OH-].[OH-] [Mg(OH)2, Magnesium hydroxide]
Body weights at Last (6th) administration [B] ([1]; after overnight fasting, loperamide 3 mg/kg, Mg(OH)2 200 mg/kg/day or mineral water 30 ml/kg/day oral, mean ± S.D. of nine rats): 241.67 ± 10.36 g
Body weight gains [B − A] ([1]; last (6th) administration minus initiation of administration, mean ± S.D. of nine rats): 22.44 ± 4.19 g
change in weight gain during the administration period [1, 8]: 8.60%
Body weights at Initiation of administration [A] ([1]; rats given loperamide 3 mg/kg, Mg(OH)2 200 mg/kg/day or mineral water 30 ml/kg/day oral, 6 days, mean ± S.D. of nine rats): 219.22 ± 8.79 g
Body weights at Fifth administration ([1]; rats given loperamide 3 mg/kg, Mg(OH)2 200 mg/kg/day or mineral water 30 ml/kg/day oral, mean ± S.D. of nine rats): 260.33 ± 12.38 g
Fecal dry-weights [2]: 4.21 ± 0.55^a g/24 hr/rat
Fecal wet-weights [2]: 9.18 ± 0.88^dg g/24 hr/rat
Numbers of fecal pellets [2]: 52.33 ± 4.21^ef
Water contents of fecal pellets [2]: 53.50 ± 9.99^c %
change in number of fecal pellets for 24 hours, 4 days after administration [2, 8]: 17.94%
change in water content in fecal pellets for 24 hours, 4 days after administration [2, 8]: 18.12%
Remnant fecal pellets in the colon: Numbers [3, 7]: 1.89 ± 0.93^c
change in mean diameter of remnant fecal pellets in the colon [3, 8]: −18.76%
change in number of remnant fecal pellets in the colon [3, 8]: −51.43%
Remnant fecal pellets in the colon: Mean thicknesses ([3]; short axis, at sacrifice after 6th administration, 18 h fasting, mean ± S.D. of nine rats): 5.26 ± 0.38^c μm
Gastrointestinal charcoal transit ratio [4]: 66.76 ± 3.47^ac %
Length of charcoal meal transferred [4]: 83.33 ± 6.06^a cm
change in intestinal charcoal transit ratio [4, 8]: 9.10%
Colon mucosa thicknesses [5]: 164.16 ± 22.31^cd μm
Fecal pellet surface mucous thickness [5]: 24.33 ± 7.82^ab μm
Mucous producing cell numbers [5]: 313.56 ± 42.27^cd cells/mm^2
change in colon mucosa thickness [5, 8]: 57.27%
change in fecal pellet surface mucosal thickness in the colon [5, 8]: 316.22%
change in mucous-producing cell number per unit area in the colonic mucosa [5, 8]: 75.17%
